# Measured values: US20100120703A1, “COMPOSITIONS AND METHODS FOR TREATING CANCER” (priority 2007, published 2010)
# System: Sprague Dawley (SD) rats
# Test: Histological analysis and GST-p immunostaining of liver, promotion stage
# Type: in vivo, rat
# From the text: In the promotion stage experiment, rats in the negative control group received weekly intraperitoneal (i.p.) injection of DMSO for the first 2 weeks and then Corn Oil for the rest of the schedule. Rats in the positive control and SIN-treatment groups both received weekly intraperitoneal (i.p.) injection of the carcinogen DEN for the first 2 weeks and then promoter, Carbon Tetrachloride (CCl4) for the rest of the schedule. Two weeks of fasting were inserted between the initiator carcinogen treatment and the promoter CCl4 treatment. During the fasting period of 2 weeks, rats were fasted for 5 days, followed by a 2 day feeding, and another 5 days of fasting. Water was given ad libitum. Negative and positive control groups received oral treatment of water once a day after fasting. Sinigrin with dosage 15 mg/kg was administered orally to the treatment group daily for 28 weeks after fasting.
# Histological analysis was performed to observe the basic structure of the hepatocytes. Xylene was purchased from Mallinckrodt. Ethanol was purchased from BDH. ABC staining (Anti-rabbit) kit (sc-2018) was purchased from Santa Cruz. Superfrost Microscope slide was purchased from Fisher. 30% H2O2, DAB and Formaldehyde were purchased from Sigma. Anti-GST-pi rabbit polyclonal antibody was purchased from MBL.
# The liver samples were fixed with 10% formaldehyde and put in cassettes for dehydration and fixed with wax. […]
smiles,measurement,setting,value
"C=CC/C(=N/OS(=O)(=O)[O-])S[C@@H]1OC(CO)[C@@H](O)C(O)C1O.[K+] (some centres unmarked) [SIN, sinigrin]",hepatocyte structure in liver sections (H&E),15 mg/kg oral daily,the basic structure of hepatocytes and the central vein were restored
same,GST-p positive area / whole section area,positive control 35%,5%
